# Tests used:
# [1] = method code SF-HPLC, from DOI: 10.1007/bf00269028, PMID: 6488439
# [2] = method code SF-AS, from DOI: 10.1211/0022357001777513, PMID: 11186244; conditions: pH 7.3
# [3] = method code SF, from DOI: 10.1016/s0045-6535(97)00338-x
# [4] = method code SF-HPLC, from DOI: 10.1002/jps.2600750520, PMID: 3735094; conditions: pH 4.0
# [5] = method code SF-AS, from PMID: 640322; conditions: pH 4.0
# [6] = method code SF-RC, from DOI: 10.1021/jm901332c, PMID: 19921956; conditions: pH 7.4
# [7] = method code SF-HPLC, from DOI: 10.1023/a:1015956705293, PMID: 3244625
# [8] = not given; remark: listed apart in the source
# [9] = not given; remark: listed apart in the source
# [10] = method code SF-RC, from DOI: 10.1002/ps.2780130506
# [11] = method code SF-AS, from Ganga, L. X. J. S., & Zun-Yaob, L. H. W. (2009). Determination of lgKow and QSPR Study on Some Fluorobenzene Derivatives. Jiegou Huaxue, 28(10).
# [12] = not given; remark: listed apart in the source
# [13] = not given; remark: listed apart in the source
# [14] = method code SF-AS, from DOI: 10.1007/s001289900158, PMID: 8661463
# [15] = method code SF, from DOI: 10.1016/j.jiec.2010.03.003
# [16] = method code SF-GLC, from Boikov, Yu.; Shibaev, V.; Gaidamaka, V.; V'yunov, K. (1989). Study of correlation between extraction characteristics of glycidyl ethers and theri structure. 62(1)177-179.
# [17] = method code SF, from DOI: 10.1021/js9700917, PMID: 9452977; conditions: pH 5.5
# [18] = method code SF-HPLC, from DOI: 10.1002/jlac.1995199512305
# [19] = method code SF-GLC, from DOI: 10.1007/bf00343116, PMID: 4026577
# [20] = not given; remark: listed apart in the source
# [21] = not given; remark: listed apart in the source
# [22] = method code SF-HPLC, from DOI: 10.1016/0378-5173(82)90005-9; conditions: pH 3.0
smiles,measurement,setting,value
Nc1ccn(C2OC(CCl)C(O)C2O)c(=O)n1 (stereo not drawn),logP,[1],-1.05
Oc1ccccc1-c1c2nc(c(-c3ccccc3O)c3ccc([nH]3)c(-c3ccccc3O)c3nc(c(-c4ccccc4O)c4ccc1[nH]4)C=C3)C=C2,logD,[2],4.58
Nc1ccc(F)c(F)c1F,logP,[3],2.14
CCOC(=O)n1cc(F)c(=O)[nH]c1=O,logD,[4],-0.17
NC(=O)N(CCCN(N=O)C(N)=O)N=O,logD,[5],-0.3
Cn1cnc2ncnc(Br)c21,logD,[6],0.2
C[C@]12CCC(=O)C=C1CC[C@@H]1[C@@H]2[C@@H](O)C[C@@]2(C)[C@H]1CC[C@]2(O)C(=O)COC(=O)CCCCCO,logP,[7],2.79
Cc1c[nH]c(=O)[nH]c1=O,logP,[1],-0.57
CCCCOC(=O)n1cc(F)c(=O)[nH]c1=O,logD,[4],0.89
CCCCCCN1C=CCC(C(=O)OC2CCC3C4CCc5cc(O)ccc5C4CC23C)=C1 (stereo not drawn),logP,,5.07
CCOC(=O)c1cc(Cl)nc(Cl)c1,logP,[8],3.6
Fc1cccc(F)c1,logP,[9],2.33
NC(=O)Nc1ccc(Oc2ccc(Br)cc2)cc1,logP,[10],3.7
Fc1cc(F)c(F)cc1F,logP,[11],2.44
FCC(F)(Cl)Cl,logP,[12],1.51
CC(=O)c1cc(F)c(Cl)cc1Cl,logP,[3],3.4
CCCCCC[N+](=O)[O-],logP,[13],2.7
NNc1nc(NN)nc(Nc2ccccc2)n1,logP,[14],1.07
Cn1cnc2c(F)ncnc21,logD,[6],0.11
CCOC(C)(C)C,logP,[15],1.71
CC(C)CN(N=O)C(N)=O,logD,[5],1.04
CNC(=O)ON=C(C)C,logP,[10],-0.13
O=C(O)c1cc(Br)nc(Br)c1,logP,[8],2.8
COCC1CO1 (stereo not drawn),logP,[16],0.03
CC(=O)Nc1ccc(S(=O)(=O)Nc2cc(C)nc(C)n2)cc1,logD,[17],-0.14
Cc1cn(C2CC(N=[N+]=[N-])C(COP(=O)(OCC3OC(n4cc(C)c(=O)[nH]c4=O)CC3N=[N+]=[N-])C(O)c3ccccc3[N+](=O)[O-])O2)c(=O)[nH]c1=O (stereo not drawn),logP,[18],0.79
NS(=O)(=O)c1ccncn1,logD,[17],-0.2
OCc1ccccc1Br,logP,[9],2.08
Oc1cccc(-c2c3nc(c(-c4cccc(O)c4F)c4ccc([nH]4)c(-c4cccc(O)c4F)c4nc(c(-c5cccc(O)c5F)c5ccc2[nH]5)C=C4)C=C3)c1F,logD,[2],4.6
CC(C)OCC1CO1 (stereo not drawn),logP,[16],0.8
N#CCCCCCCCCC#N,logP,[19],1.75
CC12CCC(=O)C=C1CCC1C2C(O)CC2(C)C1CCC2(O)C(=O)COC(=O)CCC(=O)O (stereo not drawn),logD,[7]; pH 2.5,2.11
FC(F)(Cl)C(F)(F)Cl,logP,[12],2.66
NC(=S)N/N=C/c1ccc([N+](=O)[O-])o1,logP,[20],1.64
N#CCCCCC#N,logP,[19],-0.32
CC(C)OC(C)C,logP,[15],1.94
Clc1ccccc1,logP,[21],2.73
COC(=O)CCC(=O)OCC(=O)C1(O)CCC2C3CCC4=CC(=O)CCC4(C)C3C(O)CC21C (stereo not drawn),logP,[7],2.58
Cc1cn(C2CC(N=[N+]=[N-])C(COP(=O)(OCC3OC(n4cc(C)c(=O)[nH]c4=O)CC3N=[N+]=[N-])C(O)c3c([N+](=O)[O-])cccc3[N+](=O)[O-])O2)c(=O)[nH]c1=O (stereo not drawn),logP,[18],0.73
CCCN1C=CCC(C(=O)OC2CCC3C4CCc5cc(O)ccc5C4CC23C)=C1 (stereo not drawn),logP,,4.79
CNC(=O)O/N=C/c1ccccc1,logP,[10],1.49
CCCCOCC1CO1 (stereo not drawn),logP,[16],0.55
CCN1C=CCC(C(=O)OC2CCC3C4CCc5cc(O)ccc5C4CC23C)=C1 (stereo not drawn),logP,,4.66
FC(F)(F)C(F)(F)Cl,logP,[12],2.23
CN(C)C(=O)CCC(=O)OCC(=O)[C@@]1(O)CC[C@H]2[C@@H]3CCC4=CC(=O)CC[C@]4(C)[C@H]3[C@@H](O)C[C@@]21C,logP,[7],2.03
Clc1ccc(Cl)nn1,logP,[14],0.93
N#CCCCC#N,logP,[19],-0.72
C[C@]12CCC(=O)C=C1CC[C@@H]1[C@@H]2[C@@H](O)C[C@@]2(C)[C@H]1CC[C@]2(O)C(=O)COC(=O)CCCCCC(=O)O,logD,[7]; pH 3.3,3.26
Cc1cn(C2CC(N=[N+]=[N-])C(COP(=O)(OCC3OC(n4cc(C)c(=O)[nH]c4=O)CC3N=[N+]=[N-])C(O)c3cccc([N+](=O)[O-])c3)O2)c(=O)[nH]c1=O (stereo not drawn),logP,[18],0.79
O=C(O)c1cc(Cl)nc(Cl)c1,logP,[8],2.6
O=[N+]([O-])c1cccc(O)c1,logP,[21],1.88
CCCN(N=O)C(N)=O,logD,[5],0.3
Fc1ccccc1F,logP,[11],2.1
C=COCCC,logP,[15],2
CCS(=O)(=O)CCn1c([N+](=O)[O-])cnc1C,logP,[20],-0.38
OCC(O)COc1ccccc1-c1c2nc(c(-c3ccccc3OCC(O)CO)c3ccc([nH]3)c(-c3ccccc3OCC(O)CO)c3nc(c(-c4ccccc4OCC(O)CO)c4ccc1[nH]4)C=C3)C=C2 (stereo not drawn),logD,[2],4.67
Fc1ccc(F)c(F)c1,logP,[11],2.34
CC12CC3c4ccc(O)cc4CCC3C1CCC2OC(=O)C1=CN(CCCO)C=CC1 (stereo not drawn),logP,,4.89
CC(C)[N+](=O)[O-],logP,[13],0.8
NC(=S)NS(=O)(=O)c1ccc(N)cc1,logD,[17],0.52
CC(C)COC(=O)n1cc(F)c(=O)[nH]c1=O,logD,[4],0.87
O=[N+]([O-])c1ccc(Cl)nc1Cl,logP,[14],1.96
O=C1NC(=O)C2(CCCC2)C(=O)N1,logD,[22],0.24
N#CCCC#N,logP,[19],-0.99
O=[N+]([O-])c1c(Cl)ncnc1Cl,logP,[14],0.45
Cn1cnc2ncnc(F)c21,logD,[6],-0.62
Nc1ccn([C@@H]2O[C@@H]3CO[C@H]2[C@@H]3O)c(=O)n1,logP,[1],-1.64
OCc1ccccc1I,logP,[9],2.43
CC(=O)c1ccc(F)cc1,logP,[3],1.74
CCC(C)[N+](=O)[O-] (stereo not drawn),logP,[13],1.2
CCN(N=O)C(N)=O,logD,[5],-0.15
N#Cc1ccc([N+](=O)[O-])cc1,logP,[21],1.25
CC(C)C[N+](=O)[O-],logP,[13],1.4
Nc1ccc(F)cc1,logP,[3],1.18
CNC(=O)ON=Cc1ccc(Cl)cc1,logP,[10],2.27
Cc1cn(C2CC(N=[N+]=[N-])C(COP(=O)(OCC3OC(n4cc(C)c(=O)[nH]c4=O)CC3N=[N+]=[N-])C(O)c3ccccc3)O2)c(=O)[nH]c1=O (stereo not drawn),logP,[18],0.79
COC(=O)n1cc(F)c(=O)[nH]c1=O,logD,[4],-0.68
Nc1cc[nH]c(=O)n1,logP,[1],-1.49
Oc1ccc(F)cc1F,logP,[11],1.9
OCC(O)COc1ccc(-c2c3nc(c(-c4ccc(OCC(O)CO)cc4)c4ccc([nH]4)c(-c4ccc(OCC(O)CO)cc4)c4nc(c(-c5ccc(OCC(O)CO)cc5)c5ccc2[nH]5)C=C4)C=C3)cc1 (stereo not drawn),logD,[2],4.93
Cc1cn(C2CC(N=[N+]=[N-])C(COP(=O)(OCC3OC(n4cc(C)c(=O)[nH]c4=O)CC3N=[N+]=[N-])C(O)c3ccc(C#N)cc3)O2)c(=O)[nH]c1=O (stereo not drawn),logP,[18],0.49
CC12CC3c4ccc(O)cc4CCC3C1CCC2OC(=O)C1=CN(Cc2ccccc2)C=CC1 (stereo not drawn),logP,,5.39
O=C(O)c1nc(Cl)ccc1Cl,logP,[8],1.06
Nc1c(F)cccc1F,logP,[9],1.61
Cn1cnc2ncnc(Cl)c21,logD,[6],0.03
FC(F)(Cl)Cl,logP,[12],1.93
O=[N+]([O-])c1ccc(/C=N\O)o1,logP,[20],0.3
OCC(O)COc1c(F)ccc(-c2c3nc(c(-c4ccc(F)c(OCC(O)CO)c4F)c4ccc([nH]4)c(-c4ccc(F)c(OCC(O)CO)c4F)c4nc(c(-c5ccc(F)c(OCC(O)CO)c5F)c5ccc2[nH]5)C=C4)C=C3)c1F (stereo not drawn),logD,[2],2.51
NC(=S)N/N=C\c1ccco1,logP,[20],1.64
N#Cc1ccccc1[N+](=O)[O-],logP,[21],1.16
CCCOCC1CO1 (stereo not drawn),logP,[16],0.5
CCC(C)(C)OC,logP,[15],1.81
CC(=O)Nc1ccc(S(=O)(=O)Nc2nc(C)c(C)o2)cc1,logD,[17],0.46
